Results published in ChEMBL document CHEMBL4130363, “Synthesis and pharmacological evaluation of benzamide derivatives as potent and selective sigma-1 protein ligands” (Eur J Med Chem, 2017).

Tests used:
[1] = biological target: T1, 5-hydroxytryptamine receptor 1A (Homo sapiens) (UniProt P08908); assay: Antagonist activity at recombinant human 5-HT1A assessed as inhibition of agonist-induced cAMP levels at 10 uM by HTRF assay; type: functional
T1 sequence (whole entry): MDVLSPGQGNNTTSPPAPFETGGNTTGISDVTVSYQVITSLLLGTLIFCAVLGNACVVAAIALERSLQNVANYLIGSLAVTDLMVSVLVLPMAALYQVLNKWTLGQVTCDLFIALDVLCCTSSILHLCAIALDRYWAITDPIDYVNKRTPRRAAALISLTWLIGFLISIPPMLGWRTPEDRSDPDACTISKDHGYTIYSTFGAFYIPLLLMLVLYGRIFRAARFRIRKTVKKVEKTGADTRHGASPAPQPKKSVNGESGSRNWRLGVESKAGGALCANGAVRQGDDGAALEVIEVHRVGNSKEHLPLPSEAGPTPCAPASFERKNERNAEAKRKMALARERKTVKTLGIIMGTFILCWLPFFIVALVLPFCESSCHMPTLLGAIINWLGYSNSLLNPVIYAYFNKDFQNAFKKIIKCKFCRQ

[2] = biological target: 5-hydroxytryptamine receptor 1B (Homo sapiens) (UniProt P28222); assay: Agonist activity at recombinant human 5-HT1B at 10 uM by GTPgamma[35S] binding-based assay relative to agonist; type: functional
[3] = biological target: 5-hydroxytryptamine receptor 4 (Homo sapiens) (UniProt Q13639); assay: Agonist activity at recombinant human 5-HT4E assessed as induction of cAMP levels at 10 uM by HTRF assay relative to agonist; type: functional
[4] = biological target: 5-hydroxytryptamine receptor 4 (Homo sapiens) (UniProt Q13639); assay: Antagonist activity at recombinant human 5-HT4E assessed as inhibition of agonist-induced cAMP levels at 10 uM by HTRF assay; type: functional
[5] = biological target: 5-hydroxytryptamine receptor 6 (Homo sapiens) (UniProt P50406); assay: Agonist activity at recombinant human 5-HT6R assessed as induction of cAMP levels at 10 uM by HTRF assay relative to agonist; type: functional
[6] = biological target: T2, Adenosine receptor A1 (Homo sapiens) (UniProt P30542); assay: Agonist activity at recombinant human adenosine A1 receptor […] at 10 uM by HTRF assay relative to agonist; type: functional
T2 sequence (whole entry): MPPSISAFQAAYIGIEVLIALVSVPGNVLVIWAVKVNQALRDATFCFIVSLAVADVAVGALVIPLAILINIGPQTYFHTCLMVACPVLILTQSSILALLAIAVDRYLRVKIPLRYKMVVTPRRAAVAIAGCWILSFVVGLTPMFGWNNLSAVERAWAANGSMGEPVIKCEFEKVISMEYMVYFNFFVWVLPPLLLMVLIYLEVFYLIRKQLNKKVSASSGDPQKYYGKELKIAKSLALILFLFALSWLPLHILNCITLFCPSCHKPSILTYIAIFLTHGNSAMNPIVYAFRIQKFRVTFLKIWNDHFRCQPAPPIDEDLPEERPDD

[7] = biological target: Adenosine receptor A2a (Homo sapiens) (UniProt P29274); assay: Agonist activity at recombinant human adenosine A2A receptor assessed as induction of cAMP levels at 10 uM by HTRF assay relative to agonist; type: functional
[8] = biological target: Adenosine receptor A2a (Homo sapiens) (UniProt P29274); assay: Antagonist activity at recombinant human adenosine A2A receptor assessed as inhibition of agonist-induced cAMP induction at 10 uM by HTRF assay; type: functional
[9] = biological target: T3, Alpha-1B adrenergic receptor (Homo sapiens) (UniProt P35368); assay: Agonist activity at recombinant human alpha-1b adrenergic receptor […] at 10 uM by aequorin reporter based assay relative to agonist; type: functional
T3 sequence (whole entry): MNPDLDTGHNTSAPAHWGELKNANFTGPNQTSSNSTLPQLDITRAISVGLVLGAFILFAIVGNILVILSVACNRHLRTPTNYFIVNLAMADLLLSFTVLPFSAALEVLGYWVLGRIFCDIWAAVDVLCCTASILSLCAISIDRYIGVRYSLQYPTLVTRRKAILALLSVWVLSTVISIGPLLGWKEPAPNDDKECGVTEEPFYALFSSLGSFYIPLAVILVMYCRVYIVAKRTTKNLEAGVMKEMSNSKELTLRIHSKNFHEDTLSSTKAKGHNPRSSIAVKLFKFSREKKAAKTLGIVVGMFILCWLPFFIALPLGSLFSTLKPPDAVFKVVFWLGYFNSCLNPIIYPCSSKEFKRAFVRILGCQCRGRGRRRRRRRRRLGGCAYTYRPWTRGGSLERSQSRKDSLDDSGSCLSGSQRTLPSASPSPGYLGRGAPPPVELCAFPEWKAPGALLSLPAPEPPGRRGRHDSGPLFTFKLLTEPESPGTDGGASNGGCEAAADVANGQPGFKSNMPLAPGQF

[10] = biological target: D(1A) dopamine receptor (Homo sapiens) (UniProt P21728); assay: Antagonist activity at recombinant human dopamine D1 receptor assessed as inhibition of agonist-induced cAMP induction at 10 uM by HTRF assay; type: functional
[11] = biological target: D(2) dopamine receptor (Homo sapiens) (UniProt P14416); assay: Agonist activity at recombinant human dopamine D2L receptor at 10 uM by GTPgamma[35S] binding-based assay relative to agonist
[12] = biological target: D(2) dopamine receptor (Homo sapiens) (UniProt P14416); assay: Antagonist activity at recombinant human dopamine D2L receptor assessed as inhibition of agonist-induced effect at 10 uM by GTPgamma[35S] binding-based assay
[13] = biological target: Histamine H1 receptor (Homo sapiens) (UniProt P35367); assay: Antagonist activity at recombinant human histamine H1 receptor assessed as inhibition of agonist-induced effect at 10 uM by aequorin reporter based assay; type: functional
[14] = biological target: Histamine H2 receptor (Homo sapiens) (UniProt P25021); assay: Antagonist activity at recombinant human histamine H2 receptor assessed as inhibition of agonist-induced cAMP levels at 10 uM by HTRF assay; type: functional
[15] = biological target: Substance-P receptor (Homo sapiens) (UniProt P25103); assay: Agonist activity at recombinant human NK1R at 10 uM by aequorin reporter based assay relative to agonist; type: functional
[16] = biological target: T4, Substance-K receptor (Homo sapiens) (UniProt P21452); assay: Antagonist activity at recombinant human NK2R assessed as inhibition of agonist-induced effect at 10 uM by aequorin reporter based assay; type: functional
T4 sequence (whole entry): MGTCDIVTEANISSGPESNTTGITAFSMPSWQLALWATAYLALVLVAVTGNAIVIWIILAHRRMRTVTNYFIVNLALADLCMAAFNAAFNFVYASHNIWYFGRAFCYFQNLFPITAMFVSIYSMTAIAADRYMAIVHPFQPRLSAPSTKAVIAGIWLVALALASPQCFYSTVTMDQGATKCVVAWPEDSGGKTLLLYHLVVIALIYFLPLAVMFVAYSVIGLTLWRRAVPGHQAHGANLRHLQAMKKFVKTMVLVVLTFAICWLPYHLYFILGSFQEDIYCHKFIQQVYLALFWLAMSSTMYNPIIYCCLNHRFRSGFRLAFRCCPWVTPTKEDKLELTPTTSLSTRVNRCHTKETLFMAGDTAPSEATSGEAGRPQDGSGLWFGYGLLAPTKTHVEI

[17] = biological target: Somatostatin receptor type 4 (Homo sapiens) (UniProt P31391); assay: Agonist activity at recombinant human somatostatin receptor 4 at 10 uM by GTPgamma[35S] binding-based assay relative to agonist; type: functional
Somatostatin receptor type 4 (Homo sapiens), sequence (P31391 whole entry): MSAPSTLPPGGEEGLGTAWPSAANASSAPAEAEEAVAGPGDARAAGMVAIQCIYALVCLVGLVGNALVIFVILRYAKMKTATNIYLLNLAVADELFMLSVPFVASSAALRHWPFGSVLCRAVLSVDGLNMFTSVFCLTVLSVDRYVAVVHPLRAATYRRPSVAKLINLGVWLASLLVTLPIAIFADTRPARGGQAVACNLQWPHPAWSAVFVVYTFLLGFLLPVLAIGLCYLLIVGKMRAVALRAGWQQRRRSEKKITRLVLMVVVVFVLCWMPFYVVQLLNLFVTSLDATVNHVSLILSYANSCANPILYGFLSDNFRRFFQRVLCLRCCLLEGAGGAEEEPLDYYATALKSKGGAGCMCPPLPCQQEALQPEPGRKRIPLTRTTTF

D(2) dopamine receptor (Homo sapiens), sequence (P14416 whole entry): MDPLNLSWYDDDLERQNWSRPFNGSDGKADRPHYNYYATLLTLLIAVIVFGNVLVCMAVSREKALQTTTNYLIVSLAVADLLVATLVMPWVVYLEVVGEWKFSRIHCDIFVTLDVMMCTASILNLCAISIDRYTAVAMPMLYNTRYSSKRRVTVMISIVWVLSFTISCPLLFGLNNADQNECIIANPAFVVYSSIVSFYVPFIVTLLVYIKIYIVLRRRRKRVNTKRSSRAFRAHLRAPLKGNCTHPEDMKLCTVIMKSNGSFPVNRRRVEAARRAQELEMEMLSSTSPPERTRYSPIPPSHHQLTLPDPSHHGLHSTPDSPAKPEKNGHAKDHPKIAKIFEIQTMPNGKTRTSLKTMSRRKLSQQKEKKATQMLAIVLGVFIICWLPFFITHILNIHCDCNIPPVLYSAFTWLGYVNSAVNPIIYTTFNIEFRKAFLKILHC
5-hydroxytryptamine receptor 4 (Homo sapiens), sequence (Q13639 whole entry): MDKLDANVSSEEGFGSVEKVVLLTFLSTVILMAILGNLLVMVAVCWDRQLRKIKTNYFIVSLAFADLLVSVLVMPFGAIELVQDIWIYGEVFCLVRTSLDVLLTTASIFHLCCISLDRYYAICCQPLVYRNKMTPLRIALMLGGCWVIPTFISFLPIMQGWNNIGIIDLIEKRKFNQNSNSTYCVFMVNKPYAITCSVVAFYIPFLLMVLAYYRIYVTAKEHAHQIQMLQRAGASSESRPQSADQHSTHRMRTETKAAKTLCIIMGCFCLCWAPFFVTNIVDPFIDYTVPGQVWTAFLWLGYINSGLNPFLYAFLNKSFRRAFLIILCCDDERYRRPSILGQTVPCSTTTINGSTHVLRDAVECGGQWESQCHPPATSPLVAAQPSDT
Adenosine receptor A2a (Homo sapiens), sequence (P29274 whole entry): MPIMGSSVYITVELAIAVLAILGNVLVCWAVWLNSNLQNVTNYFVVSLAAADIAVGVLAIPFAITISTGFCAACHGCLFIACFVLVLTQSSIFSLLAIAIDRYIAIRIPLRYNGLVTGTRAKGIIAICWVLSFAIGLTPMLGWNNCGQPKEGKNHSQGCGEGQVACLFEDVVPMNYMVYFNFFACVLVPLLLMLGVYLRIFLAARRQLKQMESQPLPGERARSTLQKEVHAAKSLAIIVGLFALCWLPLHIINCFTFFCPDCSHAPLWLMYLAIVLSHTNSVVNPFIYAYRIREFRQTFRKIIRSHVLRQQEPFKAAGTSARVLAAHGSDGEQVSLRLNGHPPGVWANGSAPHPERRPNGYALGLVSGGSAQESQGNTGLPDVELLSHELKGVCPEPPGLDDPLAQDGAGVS
5-hydroxytryptamine receptor 1B (Homo sapiens), sequence (P28222 whole entry): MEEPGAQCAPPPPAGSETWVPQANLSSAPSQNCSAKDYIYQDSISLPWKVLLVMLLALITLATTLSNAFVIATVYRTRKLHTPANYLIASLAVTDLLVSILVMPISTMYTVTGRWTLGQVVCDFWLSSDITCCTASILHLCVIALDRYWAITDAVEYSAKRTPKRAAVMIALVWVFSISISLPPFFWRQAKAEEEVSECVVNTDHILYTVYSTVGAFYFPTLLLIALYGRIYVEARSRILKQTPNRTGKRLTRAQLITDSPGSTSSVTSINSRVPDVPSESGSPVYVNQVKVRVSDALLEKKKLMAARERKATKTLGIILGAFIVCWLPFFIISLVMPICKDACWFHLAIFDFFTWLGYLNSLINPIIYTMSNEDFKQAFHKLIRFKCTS
Histamine H1 receptor (Homo sapiens), sequence (P35367 whole entry): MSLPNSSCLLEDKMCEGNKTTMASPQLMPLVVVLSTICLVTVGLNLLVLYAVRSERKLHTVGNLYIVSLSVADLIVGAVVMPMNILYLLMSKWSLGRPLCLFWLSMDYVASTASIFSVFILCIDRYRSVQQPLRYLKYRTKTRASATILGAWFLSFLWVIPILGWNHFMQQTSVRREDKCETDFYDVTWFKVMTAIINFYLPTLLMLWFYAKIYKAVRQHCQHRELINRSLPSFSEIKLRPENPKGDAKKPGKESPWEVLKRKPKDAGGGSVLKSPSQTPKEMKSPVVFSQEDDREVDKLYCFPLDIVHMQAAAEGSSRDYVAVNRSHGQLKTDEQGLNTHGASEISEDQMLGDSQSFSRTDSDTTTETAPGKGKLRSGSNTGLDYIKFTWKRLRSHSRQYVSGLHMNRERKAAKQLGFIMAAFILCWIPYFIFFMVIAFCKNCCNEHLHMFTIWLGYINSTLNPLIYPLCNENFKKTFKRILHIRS
Substance-P receptor (Homo sapiens), sequence (P25103 whole entry): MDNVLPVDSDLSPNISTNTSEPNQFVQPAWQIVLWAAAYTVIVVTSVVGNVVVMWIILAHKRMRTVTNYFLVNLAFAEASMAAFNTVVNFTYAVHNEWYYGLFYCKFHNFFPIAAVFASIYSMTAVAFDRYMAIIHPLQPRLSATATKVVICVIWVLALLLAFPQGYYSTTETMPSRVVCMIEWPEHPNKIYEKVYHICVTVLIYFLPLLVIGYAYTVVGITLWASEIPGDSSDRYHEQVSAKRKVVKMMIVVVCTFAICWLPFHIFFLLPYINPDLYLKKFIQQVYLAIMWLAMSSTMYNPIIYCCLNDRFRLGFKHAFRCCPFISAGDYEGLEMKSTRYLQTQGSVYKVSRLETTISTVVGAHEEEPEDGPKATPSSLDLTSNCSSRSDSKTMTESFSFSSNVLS
D(1A) dopamine receptor (Homo sapiens), sequence (P21728 whole entry): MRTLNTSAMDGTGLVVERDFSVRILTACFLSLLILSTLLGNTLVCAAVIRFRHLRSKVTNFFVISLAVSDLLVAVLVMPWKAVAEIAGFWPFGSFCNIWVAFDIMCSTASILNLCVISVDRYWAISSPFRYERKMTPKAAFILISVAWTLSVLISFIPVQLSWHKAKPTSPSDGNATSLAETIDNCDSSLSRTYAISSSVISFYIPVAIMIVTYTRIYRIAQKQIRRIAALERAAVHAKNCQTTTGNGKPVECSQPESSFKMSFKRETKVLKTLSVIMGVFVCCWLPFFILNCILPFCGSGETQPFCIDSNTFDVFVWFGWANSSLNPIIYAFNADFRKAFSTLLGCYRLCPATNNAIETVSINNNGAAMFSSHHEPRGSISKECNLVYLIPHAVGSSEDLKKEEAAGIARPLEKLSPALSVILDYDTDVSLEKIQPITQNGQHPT
Histamine H2 receptor (Homo sapiens), sequence (P25021 whole entry): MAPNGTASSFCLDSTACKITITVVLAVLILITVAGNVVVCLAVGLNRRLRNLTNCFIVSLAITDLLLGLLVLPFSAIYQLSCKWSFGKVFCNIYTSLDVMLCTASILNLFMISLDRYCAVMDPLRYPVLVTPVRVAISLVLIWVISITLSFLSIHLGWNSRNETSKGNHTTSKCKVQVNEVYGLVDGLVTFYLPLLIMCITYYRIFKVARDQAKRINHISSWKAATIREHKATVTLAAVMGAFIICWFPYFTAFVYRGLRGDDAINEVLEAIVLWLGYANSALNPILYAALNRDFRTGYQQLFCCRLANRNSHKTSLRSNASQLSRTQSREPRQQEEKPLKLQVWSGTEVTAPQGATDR
5-hydroxytryptamine receptor 6 (Homo sapiens), sequence (P50406 whole entry): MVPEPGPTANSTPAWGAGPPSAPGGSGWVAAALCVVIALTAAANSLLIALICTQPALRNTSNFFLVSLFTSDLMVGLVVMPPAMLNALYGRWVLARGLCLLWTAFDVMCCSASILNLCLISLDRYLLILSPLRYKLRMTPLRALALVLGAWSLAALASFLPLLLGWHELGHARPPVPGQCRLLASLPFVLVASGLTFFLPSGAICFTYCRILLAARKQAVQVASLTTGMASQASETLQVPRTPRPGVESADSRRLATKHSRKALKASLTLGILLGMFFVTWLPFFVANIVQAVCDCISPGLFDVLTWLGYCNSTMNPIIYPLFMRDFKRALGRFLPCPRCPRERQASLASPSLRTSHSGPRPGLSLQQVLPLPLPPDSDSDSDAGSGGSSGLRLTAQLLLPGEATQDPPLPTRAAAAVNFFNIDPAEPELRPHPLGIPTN

Q: Which results are given for `CN(CCCNC(=O)c1ccc([N+](=O)[O-])cc1)Cc1ccccc1`?
A: inhibition [1]: -6%; Activity [2]: 7%; Activity [3]: -4%; inhibition [4]: -6%; Activity [5]: 34%; Activity [6]: -9%; Activity [7]: -11%; inhibition [8]: -3%; Activity [9]: -1%; inhibition [10]: 3%; Activity [11]: 20%; inhibition [12]: 15%; inhibition [13]: 21%; inhibition [14]: 2%; Activity [15]: 0%; inhibition [16]: 9%; Activity [17]: -2%
